# In US7115658B2 (priority 2002, dated 2006):
# Target: T1, Recombinant HCV polymerase (Hepatitis C virus genotype 1b, UniProt P26663)
# T1 construct: 2.5 pmoles (0.15 μg) HCV polymerase protein
# Assay: HCV Polymerase Inhibition Assay
# Assay type: biochemical
# Details: primer/template-directed transcription, 30 minutes at 30° C.; category symbol
# Experimental: The above-described compounds were tested for activity with HCV polymerase. Recombinant HCV polymerase was tested for its ability to perform primer/template-directed transcription in assays that contained 30 mM tris-HCl pH 7.2, 10 mM MgCl2, 20 mM NaCl, 1 mM Dithiothreitol (DTT), 0.05% Tween-20, 1% glycerol, 5 pmoles biotin-dG12 (primer), 0.5 pmoles poly(rC)300 (template), 1 μM GTP, 0.1–0.3 uCi α-^32P-GTP, and 2.5 pmoles (0.15 μg) HCV polymerase protein in a final volume of 75 μL. Reactions were initiated by addition of enzyme and incubated 30 minutes at 30° C. Reactions were stopped by addition of 33 mM EDTA, and polynucleotide products were collected by filtration through Diethylaminoethyl (DE) Filtermat papers (Wallac). Unincorporated triphosphate was removed by washing the filters with 5% dibasic sodium phosphate. The filters were counted in a Packard Tri-Lux Microbeta scintillation counter (Packard Bioscience, Meriden, Conn.). Compounds to be tested were added at various concentrations, e.g., 1 μm to 50 μm, from stocks in 10% DMSO-water (final DMSO is 1% in reaction).
# IC50 values were estimated from the primary cpm data (collected in triplicate) using the formula: cpm (I)=cpm (no inhibitor)(1−([I]/([I]+IC50))). An IC50 value represents the concentration (in μM) of a compound that provides 50% inhibition of polymerase-directed transcription in the above assay. A percent inhibition value is expressed for a compound where it was impractical to calculate an IC50 value with available data. If the IC50 estimated by the above equation was less than 200 nM, it was recalculated using the following equation, which takes into account the enzyme concentration (30 nM) in the assay: cpm(I)=cpm(no inhibitor)(1−((((I+IC50+30e−9)−sqrt(((I+IC50+30e−9)^2)−4×30e−9×I)))/((2) (30e−9))). Curve fitting was performed using the program KaleidaGraph (Synergy Software, Reading, Pa.).
# T1 sequence (P26663 2420-3010): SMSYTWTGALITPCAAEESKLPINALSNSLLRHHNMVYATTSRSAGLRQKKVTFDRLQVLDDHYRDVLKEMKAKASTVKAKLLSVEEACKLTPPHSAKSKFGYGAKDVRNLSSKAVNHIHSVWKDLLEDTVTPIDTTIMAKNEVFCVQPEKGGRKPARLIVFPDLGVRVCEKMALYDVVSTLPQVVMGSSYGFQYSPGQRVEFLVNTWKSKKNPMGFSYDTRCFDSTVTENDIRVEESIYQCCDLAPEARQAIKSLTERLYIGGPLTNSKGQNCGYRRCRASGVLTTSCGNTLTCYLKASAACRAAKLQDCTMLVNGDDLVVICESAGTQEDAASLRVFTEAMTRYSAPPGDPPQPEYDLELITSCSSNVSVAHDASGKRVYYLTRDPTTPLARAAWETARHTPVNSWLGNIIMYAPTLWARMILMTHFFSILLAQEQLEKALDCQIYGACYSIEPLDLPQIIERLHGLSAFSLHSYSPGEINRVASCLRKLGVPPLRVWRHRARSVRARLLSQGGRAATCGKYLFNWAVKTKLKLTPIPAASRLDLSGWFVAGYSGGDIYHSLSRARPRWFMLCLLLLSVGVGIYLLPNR
row,Compound,IC50
1,"COC(=O)Cc1ccc(CCC2(C3CCCC3)CC(=O)CC(=O)O2)cc1 (centres unmarked) [Example 10, {4-[2-(2-Cyclopentyl-4,6-dioxo-tetrahydro-pyran-2-yl)-ethyl]-phenyl}-acetic acid methyl ester]",10 to 50 µM
2,"O=C(Cc1cccnc1)C1C(=O)CC(CCc2cccc(Cl)c2)(C2CCCC2)OC1=O (centres unmarked) [Example 174, 6-[2-(3-Chloro-phenyl)-ethyl]-6-cyclopentyl-3-(2-pyridin-3-yl-acetyl)-dihydro-pyran-2,4-dione]",1 to 10 µM
3,"O=C1C=C(O)CC(CCCC2CCCCC2)(C2CCCC2)O1 (centres unmarked) [Example 22, 6-(3-Cyclohexyl-propyl)-6-cyclopentyl-4-hydroxy-5,6-dihydro-pyran-2-one]",10 to 50 µM
4,"COc1cc(OC)c(CCC2(C3CCCC3)CC(O)=C(Sc3nc4ccc(C(=O)O)cc4[nH]3)C(=O)O2)cc1Cl (centres unmarked) [Example 99, 2-({6-[2-(5-chloro-2,4-dimethoxyphenyl)ethyl]-6-cyclopentyl-4-hydroxy-2-oxo-5,6-dihydro-2H-pyran-3-yl}thio)-1H-benzimidazole-5-carboxylic acid]",< 1 µM
5,"COc1ccc(CCC2(C3CCCC3)CC(O)=C(Sc3n[nH]c(-c4ccncc4)n3)C(=O)O2)cc1 (centres unmarked) [Example 111, 6-Cyclopentyl-4-hydroxy-6-[2-(4-methoxyphenyl)ethyl]-3-[(5-pyridin-4-yl-1H-1,2,4-triazol-3-yl)thio]-5,6-dihydro-2H-pyran-2-one]",< 1 µM
6,"COc1ccc(CCC2(C3CCCC3)CC(=O)C(Oc3ccccc3)C(=O)O2)c(OC)c1 (centres unmarked) [Example 163, 6-Cyclopentyl-6-[2-(2,4-dimethoxy-phenyl)-ethyl]-3-phenoxy-dihydro-pyran-2,4-dione]",10 to 50 µM
7,"CC(=O)C1C(=O)CC(CCc2cccc(Cl)c2)(C2CCCC2)OC1=O (centres unmarked) [Example 167, 3-Acetyl-6-[2-(3-chloro-phenyl)-ethyl]-6-cyclopentyl-dihydro-pyran-2,4-dione]",10 to 50 µM
8,"CC(C)(C)c1cc2nc(N)sc2cc1SC1=C(O)CC(C2CCCC2)(C2CCCC2)OC1=O [Example 183, 3-(2-Amino-5-tert-butyl-benzothiazol-6-ylsulfanyl)-6,6-dicyclopentyl-4-hydroxy-5,6-dihydro-pyran-2-one]",10 to 50 µM
9,"O=C1CC(=O)OC(CCc2ccc(Cl)c(Cl)c2)(C2CCCC2)C1 (centres unmarked) [Example 53, 6-Cyclopentyl-6-[2-(3,4-dichloro-phenyl)-ethyl]-dihydro-pyran-2,4-dione]",1 to 10 µM
10,"COc1cc(OC)c(CCC2(C3CCCC3)CC(=O)CC(=O)O2)cc1Cl (centres unmarked) [Example 39, 6-[2-(5-chloro-2,4-dimethoxyphenyl)ethyl]-6-cyclopentyldihydro-2H-pyran-2,4(3H)-dione]",< 1 µM
11,"COc1ccc(CCC2(C3CCCC3)CC(O)=C(Sc3nc(C)c(CC(=O)O)s3)C(=O)O2)cc1 (centres unmarked) [Example 112, [2-({6-Cyclopentyl-4-hydroxy-6-[2-(4-methoxyphenyl)ethyl]-2-oxo-5,6-dihydro-2H-pyran-3-yl}thio)-4-methyl-1,3-thiazol-5-yl]acetic acid]",< 1 µM
12,"COc1ccc(CCC2(C3CCCC3)CC(=O)CC(=O)O2)cc1F (centres unmarked) [Example 30, 6-Cyclopentyl-6-[2-(3-fluoro-4-methoxy-phenyl)-ethyl]-dihydro-pyran-2,4-dione]",< 1 µM
13,"Cc1cc(SC2=C(O)CC(CCc3ccc(O)cc3)(C3CCCCC3)OC2=O)c(C(C)(C)C)cc1OS(=O)(=O)c1ccccc1 (centres unmarked) [Example 135, Benzenesulfonic acid 5-tert-butyl-4-{6-cyclohexyl-4-hydroxy-6-[2-(4-hydroxy-phenyl)-ethyl]-2-oxo-5,6-dihydro-2H-pyran-3-ylsulfanyl}-2-methyl-phenyl ester]",10 to 50 µM
14,"Cc1cc(SC2=C(O)CC(CCc3ccc(O)cc3)(C3CCCC3)OC2=O)c(C(C)(C)C)cc1CO (centres unmarked) [Example 133, 3-(2-tert-butyl-4-hydroxymethyl-5-methyl-phenylsulfanyl)-6-cyclopentyl-4-hydroxy-6-[2-(4-hydroxy-phenyl)-ethyl]-5,6-dihydro-pyran-2-one]",< 1 µM
15,CC1(c2ccc(CCC3(C4CCCC4)CC(=O)CC(=O)O3)cc2)CC(=O)CC(=O)O1 (centres unmarked) [Example 66],< 1 µM
16,"CC(C)(C)c1cccc(CCC2(C3CCCC3)CC(=O)CC(=O)O2)c1 (centres unmarked) [Example 11, 6-[2-(3-tert-butyl-phenyl)-ethyl]-6-cyclopentyl-dihydro-pyran-2,4-dione]",1 to 10 µM

row,Compound,IC50
1,"CCOC(=O)c1cnc(SC2=C(O)CC(CCc3cc(Cl)c(OC)cc3OC)(C3CCCC3)OC2=O)[nH]1 (centres unmarked) [Example 100, Ethyl 2-({6-[2-(5-chloro-2,4-dimethoxyphenyl)ethyl]-6-cyclopentyl-4-hydroxy-2-oxo-5,6-dihydro-2H-pyran-3-yl}thio)-1H-imidazol-4-carboxylate]",< 1 µM
2,"COc1ccc(CCC2(C3CCCC3)CC(=O)C(C(=O)c3ccccc3)C(=O)O2)c(OC)c1 (centres unmarked) [Example 175, 3-Benzoyl-6-cyclopentyl-6-[2-(2,4-dimethoxy-phenyl)-ethyl]-dihydro-pyran-2,4-dione]",10 to 50 µM
3,"COc1ccc(Oc2cccc(CCC3(C4CCCC4)CC(O)=CC(=O)O3)c2)cc1 (centres unmarked) [Example 45, 6-cyclopentyl-6-{2-[3-(4-methoxyphenoxy)phenyl]ethyl}-4-hydroxy-5,6-dihydro-2H-pyran-2-one]",10 to 50 µM
4,"6-[2-(3-Chloro-4-isopropoxy-phenyl)-ethyl]-6-cyclopentyl-3-(5,7-dimethyl-[1,2,4]triazolo[1,5-a]pyrimidin-2-ylsulfanyl)-4-hydroxy-5,6-dihydro-pyran-2-one [Example 129]",< 1 µM
5,"Cc1cc(C)n2nc(SC3=C(O)CC(CCc4ccc(OCc5ccccc5)cc4)(C4CCCC4)OC3=O)nc2n1 (centres unmarked) [Example 122, 6-{2-[4-(Benzyloxy)phenyl]ethyl}-6-cyclopentyl-3-[(5,7-dimethyl[1,2,4]triazolo[1,5-a]pyrimidin-2-yl)thio]-4-hydroxy-5,6-dihydro-2H-pyran-2-one]",< 1 µM
6,"CCn1nnnc1SC1=C(O)CC(CCc2ccc(OC)cc2)(C2CCCC2)OC1=O (centres unmarked) [Example 121, 6-Cyclopentyl-3-[(1-ethyl-1H-tetraazol-5-yl)thio]-4-hydroxy-6-[2-(4-methoxyphenyl)ethyl]-5,6-dihydro-2H-pyran-2-one]",< 1 µM
7,"CC(C)Oc1ccc(CCC2(C3CCCC3)CC(=O)CC(=O)O2)cc1 (centres unmarked) [Example 41, 6-Cyclopentyl-6-[2-(4-isopropoxy-phenyl)-ethyl]-dihydro-pyran-2,4-dione]",1 to 10 µM
8,"COc1ccc(OCC2(C3CCCC3)CC(=O)CC(=O)O2)cc1 (centres unmarked) [Example 58, 6-Cyclopentyl-6-(4-methoxy-phenoxymethyl)-dihydro-pyran-2,4-dione]",> 50 µM
9,"O=C1CC(=O)OC(CCc2cccc3ccccc23)(C2CCCC2)C1 (centres unmarked) [Example 2, 6-Cyclopentyl-6-(2-napthalen-1-ylethyl)dihydropyran-2,4-dione]",> 50 µM
10,"CC(C)(C#N)c1cccc(CCC2(C3CCCC3)CC(=O)CC(=O)O2)c1 (centres unmarked) [Example 13, 2-{3-[2-(2-Cyclopentyl-4,6-dioxo-tetrahydro-pyran-2-yl)-ethyl]-phenyl}-2-methyl-propionitrile]",1 to 10 µM
11,"CC(C)Oc1ccc(CCC2(C3CCCC3)CC(=O)CC(=O)O2)cc1Cl (centres unmarked) [Example 81, 6-[2-(3-Chloro-4-isopropoxy-phenyl)-ethyl]-6-cyclopentyl-dihydro-pyran-2,4-dione]",< 1 µM
12,"COc1cc(OC)c(CCC2(C3CCCC3)CC(O)=C(Sc3cnccn3)C(=O)O2)cc1Cl (centres unmarked) [Example 108, 6-[2-(5-Chloro-2,4-dimethoxyphenyl)ethyl]-6-cyclopentyl-4-hydroxy-3-(pyrazin-2-ylthio)-5,6-dihydro-2H-pyran-2-one]",< 1 µM
13,"COc1ccccc1CCC1(C2CCCC2)CC(=O)CC(=O)O1 (centres unmarked) [Example 4, 6-Cyclopentyl-6-[2-(2-methoxyphenyl)ethyl]dihydropyran-2,4-dione]",10 to 50 µM
14,"O=C1OC(CCc2ccc(OCc3ccccc3)cc2)(C2CCCC2)CC(O)=C1Sc1nc(O)c2cc[nH]c2n1 (centres unmarked) [Example 123, 6-{2-[4-(Benzyloxy)phenyl]ethyl}-6-cyclopentyl-4-hydroxy-3-[(4-hydroxy-7H-pyrrolo[2,3-d]pyrimidin-2-yl)thio]-5,6-dihydro-2H-pyran-2-one]",< 1 µM
15,"COc1ccc(CCC2(C3CCCC3)CC(=O)C(C(=O)Cc3cccnc3)C(=O)O2)c(OC)c1 (centres unmarked) [Example 172, 6-Cyclopentyl-6-[2-(2,4-dimethoxy-phenyl)-ethyl]-3-(2-pyridin-3-yl-acetyl)-dihydro-pyran-2,4-dione]",1 to 10 µM

# Same assay, conditions: primer/template-directed transcription, 30 minutes at 30° C.; read-out: IC50(μM) Category
row,Compound,IC50
1,"COc1ccc(CCC2(C3CCCC3)CC(=O)C(Cc3ccccc3)C(=O)O2)cc1Cl (centres unmarked) [Example 178, 3-Benzyl-6-[2-(3-chloro-4-methoxy-phenyl)-ethyl]-6-cyclopentyl-dihydro-pyran-2,4-dione]",0.6 µM
